Literature values as cited in patent US7914804B2, “Slow release pharmaceutical preparation and method of administering same” (Palmaya Pty Ltd, priority 2001, dated 2011).

Row | SMILES | t1/2 (in the body) | effectiveness relative to Naloxone (thought to be) | lasting in the body relative to Naloxone (thought to be) [times]
1 | C=CCN1CC[C@]23c4c5ccc(O)c4O[C@H]2C(=O)CC[C@@]3(O)[C@H]1C5 [Naloxone] | ½ | – | –
2 | O=C1CC[C@@]2(O)[C@H]3Cc4ccc(O)c5c4[C@@]2(CCN3CC2CC2)[C@H]1O5 [Naltrexone] | – | twice as effective | 8
